Test results as given in patent US20230085307A1, “PYRIDAZINONE COMPOUND AND HERBICIDE” (NISSAN CHEMICAL CORPORATION, priority 2019, published 2023).

How the values were obtained:
barnyard grass [1] = experiment: Test Example 3: herbicidal effect by foliage application, Wagner pot (Table 18, symbol H); format: in vivo, barnyard grass (Echinochloa crus-galli); details: 320 g/ha
Outline: (§1)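 Plants were sown in alluvial soil held under 0.1–0.5 cm standing water and grown 14 days in a greenhouse at 25–30 °C. An emulsifiable formulation, water-diluted to the set dose, was then sprayed onto the foliage, and effects were scored three weeks later using previously defined criteria.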

velvetleaf [2] = experiment: Test Example 5: herbicidal effect by foliage application, plastic box (Table 20, symbol M); format: in vivo, velvetleaf (Abutilon theophrasti); details: 320 g/ha, foliage application after 14-day growth, evaluated three weeks after application
Outline: (§2)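 Plants sown in sterilized diluvial soil and grown 14 days in a greenhouse at 25° C to 30° C, then sprayed on the foliage with the compound's emulsion diluted in water to a predetermined herbicide amount. Injury to weeds and crops scored three weeks after application on a visual rating scale.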

Japanese bulrush = experiment: Test Example 2: herbicidal activity, application during weed generation under submerged conditions (Table 17, symbol B); format: in vivo, Japanese bulrush (Schoenoplectus juncoides); details: AAH 320 g/ha; application during weed generation, submerged conditions
Outline: (§3)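 Herbicide emulsion, diluted with water to the chosen amount, is applied onto 4 cm floodwater over alluvial soil where the weeds were co-sown and raised at 25–30° C. Application timing: 1–2 leaves. Assessment: three weeks afterwards.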

redroot pigweed [3] = experiment: Test Example 5: herbicidal effect by foliage application, plastic box (Table 20, symbol N); format: in vivo, redroot pigweed (Amaranthus retroflexus); details: 320 g/ha, foliage application after 14-day growth, evaluated three weeks after application
Outline: as §2

barnyard grass [4] = experiment: Test Example 4: herbicidal effect by soil treatment (Table 19, symbol H); format: in vivo, barnyard grass (Echinochloa crus-galli); details: amount of applied herbicide 320 g/ha
Outline: (§4)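 Three weeks of greenhouse growth at 25° C. to 30° C. followed a uniform surface spray of water-diluted emulsion at a predetermined herbicide amount. Seeds had been sown beforehand under about 1.5 cm of sterilized diluvial soil. Grading followed criteria set out in an earlier test.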

blackgrass [5] = experiment: Test Example 4: herbicidal effect by soil treatment (Table 19, symbol J); format: in vivo, blackgrass (Alopecurus myosuroides); details: amount of applied herbicide 320 g/ha
Outline: as §4

redroot pigweed [6] = experiment: Test Example 4: herbicidal effect by soil treatment (Table 19, symbol N); format: in vivo, redroot pigweed (Amaranthus retroflexus); details: amount of applied herbicide 320 g/ha
Outline: as §4

chickweed [7] = experiment: Test Example 4: herbicidal effect by soil treatment (Table 19, symbol P); format: in vivo, common chickweed (Stellaria media); details: amount of applied herbicide 320 g/ha
Outline: as §4

persian speedwell [8] = experiment: Test Example 4: herbicidal effect by soil treatment (Table 19, symbol R); format: in vivo, Persian speedwell (Veronica persica); details: amount of applied herbicide 320 g/ha
Outline: as §4

blackgrass [9] = experiment: Test Example 5: herbicidal effect by foliage application, plastic box (Table 20, symbol J); format: in vivo, blackgrass (Alopecurus myosuroides); details: 320 g/ha, foliage application after 14-day growth, evaluated three weeks after application
Outline: as §2

oval-leafed pondweed = experiment: Test Example 2: herbicidal activity, application during weed generation under submerged conditions (Table 17, symbol C); format: in vivo, oval-leafed pondweed (Monochoria vaginalis); details: AAH 320 g/ha; application during weed generation, submerged conditions
Outline: as §3

southern crabgrass [10] = experiment: Test Example 5: herbicidal effect by foliage application, plastic box (Table 20, symbol F); format: in vivo, southern crabgrass (Digitaria ciliaris); details: 320 g/ha, foliage application after 14-day growth, evaluated three weeks after application
Outline: as §2

Italian ryegrass [11] = experiment: Test Example 5: herbicidal effect by foliage application, plastic box (Table 20, symbol K); format: in vivo, Italian ryegrass (Lolium multiflorum); details: 320 g/ha, foliage application after 14-day growth, evaluated three weeks after application
Outline: as §2

velvetleaf [12] = experiment: Test Example 4: herbicidal effect by soil treatment (Table 19, symbol M); format: in vivo, velvetleaf (Abutilon theophrasti); details: amount of applied herbicide 320 g/ha
Outline: as §4

Italian ryegrass [13] = experiment: Test Example 4: herbicidal effect by soil treatment (Table 19, symbol K); format: in vivo, Italian ryegrass (Lolium multiflorum); details: amount of applied herbicide 320 g/ha
Outline: as §4

wild oat [14] = experiment: Test Example 5: herbicidal effect by foliage application, plastic box (Table 20, symbol I); format: in vivo, wild oat (Avena fatua); details: 320 g/ha, foliage application after 14-day growth, evaluated three weeks after application
Outline: as §2

persian speedwell [15] = experiment: Test Example 5: herbicidal effect by foliage application, plastic box (Table 20, symbol R); format: in vivo, Persian speedwell (Veronica persica); details: 320 g/ha, foliage application after 14-day growth, evaluated three weeks after application
Outline: as §2

chickweed [16] = experiment: Test Example 5: herbicidal effect by foliage application, plastic box (Table 20, symbol P); format: in vivo, common chickweed (Stellaria media); details: 320 g/ha, foliage application after 14-day growth, evaluated three weeks after application
Outline: as §2

late watergrass = experiment: Test Example 2: herbicidal activity, application during weed generation under submerged conditions (Table 17, symbol A); format: in vivo, late watergrass (Echinochloa oryzicola); details: AAH 320 g/ha; application during weed generation, submerged conditions
Outline: as §3

barnyard grass [17] = experiment: Test Example 5: herbicidal effect by foliage application, plastic box (Table 20, symbol H); format: in vivo, barnyard grass (Echinochloa crus-galli); details: 320 g/ha, foliage application after 14-day growth, evaluated three weeks after application
Outline: as §2

wild oat [18] = experiment: Test Example 4: herbicidal effect by soil treatment (Table 19, symbol I); format: in vivo, wild oat (Avena fatua); details: amount of applied herbicide 320 g/ha
Outline: as §4

Chinese sprangletop = experiment: Test Example 3: herbicidal effect by foliage application, Wagner pot (Table 18, symbol D); format: in vivo, chinese sprangletop (Leptochloa chinensis); details: 320 g/ha
Outline: as §1

windgrass [19] = experiment: Test Example 4: herbicidal effect by soil treatment (Table 19, symbol L); format: in vivo, windgrass (Apera spica-venti); details: amount of applied herbicide 320 g/ha
Outline: as §4

lambsquarters [20] = experiment: Test Example 5: herbicidal effect by foliage application, plastic box (Table 20, symbol O); format: in vivo, lambsquarters (Chenopodium album); details: 320 g/ha, foliage application after 14-day growth, evaluated three weeks after application
Outline: as §2

rice flat sedge = experiment: Test Example 3: herbicidal effect by foliage application, Wagner pot (Table 18, symbol E); format: in vivo, rice flat sedge (Cyperus iria); details: 320 g/ha
Outline: as §1

lambsquarters [21] = experiment: Test Example 4: herbicidal effect by soil treatment (Table 19, symbol O); format: in vivo, lambsquarters (Chenopodium album); details: amount of applied herbicide 320 g/ha
Outline: as §4

green foxtail [22] = experiment: Test Example 5: herbicidal effect by foliage application, plastic box (Table 20, symbol G); format: in vivo, green foxtail (Setaria viridis); details: 320 g/ha, foliage application after 14-day growth, evaluated three weeks after application
Outline: as §2

southern crabgrass [23] = experiment: Test Example 4: herbicidal effect by soil treatment (Table 19, symbol F); format: in vivo, southern crabgrass (Digitaria ciliaris); details: amount of applied herbicide 320 g/ha
Outline: as §4

windgrass [24] = experiment: Test Example 5: herbicidal effect by foliage application, plastic box (Table 20, symbol L); format: in vivo, windgrass (Apera spica-venti); details: 320 g/ha, foliage application after 14-day growth, evaluated three weeks after application
Outline: as §2

green foxtail [25] = experiment: Test Example 4: herbicidal effect by soil treatment (Table 19, symbol G); format: in vivo, green foxtail (Setaria viridis); details: amount of applied herbicide 320 g/ha
Outline: as §4

CCCC(=O)Oc1c(C)nn(C)c(=O)c1-c1c(-c2ccc(C(F)(F)F)cc2)sc2c(Cl)cccc12 [4-030]
herbicidal effect on barnyard grass (H) (barnyard grass [1]): 3 (Herbicidal rate of 40% or more and less than 70%)
herbicidal effect on M: velvetleaf (evaluation grade 0-5) (velvetleaf [2]): 0 (Herbicidal rate of 5% or less (almost no effect))
herbicidal effect rating, B: Japanese bulrush (Japanese bulrush): 3 (Herbicidal rate of 40% or more and less than 70%)
herbicidal effect on N: redroot pigweed (evaluation grade 0-5) (redroot pigweed [3]): 0 (Herbicidal rate of 5% or less (almost no effect))
Herbicidal effect by soil treatment, H: barnyard grass (barnyard grass [4]): 0 (Herbicidal rate of 5% or less (almost no effect))
Herbicidal effect by soil treatment, J: blackgrass (blackgrass [5]): 0 (Herbicidal rate of 5% or less (almost no effect))
Herbicidal effect by soil treatment, N: redroot pigweed (redroot pigweed [6]): 0 (Herbicidal rate of 5% or less (almost no effect))
Herbicidal effect by soil treatment, P: chickweed (chickweed [7]): 3 (Herbicidal rate of 40% or more and less than 70%)
Herbicidal effect by soil treatment, R: persian speedwell (persian speedwell [8]): 0 (Herbicidal rate of 5% or less (almost no effect))
herbicidal effect on J: blackgrass (evaluation grade 0-5) (blackgrass [9]): 0 (Herbicidal rate of 5% or less (almost no effect))
herbicidal effect rating, C: oval-leafed pondweed (oval-leafed pondweed): 3 (Herbicidal rate of 40% or more and less than 70%)
herbicidal effect on F: southern crabgrass (evaluation grade 0-5) (southern crabgrass [10]): 0 (Herbicidal rate of 5% or less (almost no effect))
herbicidal effect on K: Italian ryegrass (evaluation grade 0-5) (Italian ryegrass [11]): 0 (Herbicidal rate of 5% or less (almost no effect))
Herbicidal effect by soil treatment, M: velvetleaf (velvetleaf [12]): 0 (Herbicidal rate of 5% or less (almost no effect))
Herbicidal effect by soil treatment, K: Italian ryegrass (Italian ryegrass [13]): 0 (Herbicidal rate of 5% or less (almost no effect))
herbicidal effect on I: wild oat (evaluation grade 0-5) (wild oat [14]): 3 (Herbicidal rate of 40% or more and less than 70%)
herbicidal effect on R: persian speedwell (evaluation grade 0-5) (persian speedwell [15]): 5 (Herbicidal rate of 90% or more (almost completely withered))
herbicidal effect on P: chickweed (evaluation grade 0-5) (chickweed [16]): 5 (Herbicidal rate of 90% or more (almost completely withered))
herbicidal effect rating, A: late watergrass (late watergrass): 3 (Herbicidal rate of 40% or more and less than 70%)
herbicidal effect on H: barnyard grass (evaluation grade 0-5) (barnyard grass [17]): 0 (Herbicidal rate of 5% or less (almost no effect))
Herbicidal effect by soil treatment, I: wild oat (wild oat [18]): 0 (Herbicidal rate of 5% or less (almost no effect))
herbicidal effect on Chinese sprangletop (D) (Chinese sprangletop): 5 (Herbicidal rate of 90% or more (almost completely withered))
Herbicidal effect by soil treatment, L: windgrass (windgrass [19]): 0 (Herbicidal rate of 5% or less (almost no effect))
herbicidal effect on O: lambsquarters (evaluation grade 0-5) (lambsquarters [20]): 0 (Herbicidal rate of 5% or less (almost no effect))
herbicidal effect on rice flat sedge (E) (rice flat sedge): 3 (Herbicidal rate of 40% or more and less than 70%)
Herbicidal effect by soil treatment, O: lambsquarters (lambsquarters [21]): 0 (Herbicidal rate of 5% or less (almost no effect))
herbicidal effect on G: green foxtail (evaluation grade 0-5) (green foxtail [22]): 0 (Herbicidal rate of 5% or less (almost no effect))
Herbicidal effect by soil treatment, F: southern crabgrass (southern crabgrass [23]): 0 (Herbicidal rate of 5% or less (almost no effect))
herbicidal effect on L: windgrass (evaluation grade 0-5) (windgrass [24]): 5 (Herbicidal rate of 90% or more (almost completely withered))
Herbicidal effect by soil treatment, G: green foxtail (green foxtail [25]): 0 (Herbicidal rate of 5% or less (almost no effect))
